Source: patent publication US9532938B2, “Esters of O-substituted hydroxy carboxylic acids and preparations thereof” (Eastman Chemical Company, priority 2010, dated 2017)

Target: T1, Novozym 435 (Candida antarctica lipase B immobilized on acrylic resin) (Moesziomyces antarcticus, UniProt P41365)
T1 construct: purchased
Experiment: Enzymatic hydrolysis of oleyl glycolyl retinoate with Novozym 435
Format: in vitro ADME
Settings: toluene / pH 7 phosphate buffer
Description: Oleyl glycolyl retinoate (50 mg; 0.082 mmol) was dissolved in 1 mL of toluene. pH 7 Phosphate buffer (1 mL) was added followed by Novozym 435 (50 mg). The mixture was stirred for 1 h at ambient temperature to afford 5% hydrolysis according to HPLC analysis.

T1 sequence (P41365 26-342): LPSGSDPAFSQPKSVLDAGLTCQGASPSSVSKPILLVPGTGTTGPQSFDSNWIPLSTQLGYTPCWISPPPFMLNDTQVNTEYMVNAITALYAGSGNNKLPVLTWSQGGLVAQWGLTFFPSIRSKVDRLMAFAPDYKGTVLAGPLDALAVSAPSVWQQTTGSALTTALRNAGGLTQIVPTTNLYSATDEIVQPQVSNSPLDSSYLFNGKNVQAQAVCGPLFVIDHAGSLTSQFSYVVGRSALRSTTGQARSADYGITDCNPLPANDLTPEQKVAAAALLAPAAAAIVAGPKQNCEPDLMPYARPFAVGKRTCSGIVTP

For `CCCCCCCC/C=C\CCCCCCCCOC(=O)COC(=O)/C=C(C)/C=C/C=C(C)/C=C/C1=C(C)CCCC1(C)C` [Oleyl glycolyl retinoate, Oleyl Glycolyl Retinoate], the “hydrolysis according to HPLC analysis” value (Novozym 435 (50 mg), stirred 1 h at ambient temperature) was 5% and the “hydrolysis, control reaction without enzyme” value (no enzyme, ambient temperature) was “no hydrolysis”.
